# Results from patent publication US5721106A, “In Vitro method for screening β-amyloid deposition” (Regents of the University of Minnesota, priority 1994, dated 1998).
# Ends that are not written are not given here.
# B1: βA(26-42)-NH2 (peptide)
# peptide: SNKGAIIGLMVGGVVIA-NH2
# modifications: also: 125I-labelled after acylation with 4-hydroxyphenylpropionic acid, site not given here
# What was measured:
# AD plaques = experiment: Deposition of ^125 I-labelled β-amyloid peptides onto plaques in AD brain tissue (homogenate binding, autoradiography); set-up: species or system human
# Experimental: Fragments labelled in accordance with the method described herein can be combined with amyloid plaque derived from Alzheimer's disease tissue or other amyloid substance such as silk, and tested for activity, for example, their ability to deposit on these materials.
# Brain tissue was obtained form normal and Alzheimer's disease patients at 0.5 to 14 hours postmortem, frozen on dry ice after collection, and stored at -20° C. until use. For filter binding studies, tissue homogenates were prepared after the method of H. P. Too and M. R. Hanley, Biochem. J. 252:545 (1988), the disclosure of which is incorporated by reference herein. Tissue was homogenized (Polytron, setting 7-8, 5-10 sec) in 5-10 volumes of 50 mM Tricine (pH 7.5) containing 10% sucrose and protease inhibitors (0.01% bacitracin, 0.002% soybean trypsin inhibitor, 0.0002% chicken egg trypsin inhibitor, 1 mM benzamidine hydrochloride) and pelleted at 10,000 g for 20 minutes. The homogenate was then resuspended and washed several times in Tricine buffer containing 120 mM NaCl, 10 mM EDTA, 300 mM KCl and centrifuged at 40,000 g for 20 minutes and stored at -20° C. for less than two months. Membranes (equivalent to about 30 mg tissue) were resuspended in 0.5 ml 50 mM TrisHCl (pH 7.5) containing 1 mg/ml bovine serum albumin (BSA), 10 mM MnCl2, 0.004% bacitracin, 0.002% chymostatin, 0.004% leupeptin, 0.1% dimethylsulfoxide for 30 minutes prior to addition of the radioligand (10^-11 to 10^-9 M) and various concentrations of unlabelled peptides in the same buffer.
# After incubating for two hours at room temperature, the homogenates (final volume 0.575 ml) were filtered through glass fiber filters (Whatman GF/D), presoaked for at least two hours in 1 mg/ml BSA and rinsed with 25 mM Tricine (pH 7.5). After washing twice with 25 mM TrisHCl (pH 7.5) at room temperature, the filters were counted in a gamma counter.
# For tissue autoradiography, unfixed tissue was serially sectioned at 5-15 μm and thaw-mounted onto gelatin-coated slices. Slide-mounted sections were stored at -20° C. in closed boxes over desiccant for less than three months before use. Sections were preincubated for 30 minutes and incubated with the radioligand for two hours under the same conditions according to the aforedescribed homogenate binding study. Alternatively, 50 mM TrisHCl rather than Tricine may be used as the buffer. For estimating nonspecific binding, paired serial sections were incubated with the radioligand in the presence of a 10^4 to 10^5 fold excess of the unlabelled peptide. Following incubation with the radioligand, the slides were washed with 50 mM TrisHCl pH 7.5 (four times, two minutes each at 4° C.), then dried at 4° C. and stored in closed boxes over desiccant at room temperature overnight. The fully dried slides were then placed in apposition to tritium-sensitive film alongside iodinated standards. After one week's exposure at -20° C., the film was developed, fixed and washed. […] This approach generated film autoradiograms for quantitative densitometry,a high resolution emulsion autoradiograms for detailed histology, and a counterstained section for identification of cell types from each tissue section.
# Briefly peptides were purchased or synthesized by fluorenemethoxycarbonyl chemistry on polystyrene resins, using acid-labile blocking groups for sidechain protection, cleaved with trifluoroacetic acid, and purified by RP-HPLC. […] Autoradiograms were quantitated by densitometry. […] To study the peptide fragments in water we developed a novel approach, measuring NMR data at 750 MHz using a prototype 10 mm ^1 H pulsed field gradient probe. Modified two-dimensional homonuclear TOCSY and NOESY experiments were measured at several pH values and structural information was derived using standard methods.
# adult rat brain = experiment: Binding of radiolabelled rat β-amyloid peptide to rat brain
# ceilan katia yarn (silk) = experiment: Deposition of radiolabelled β-amyloid peptides onto silk; format: binding, Bombyx silkworm; details: in the presence of Triton X-100 (FIG. 5)
# Experimental: Peptide deposition was conducted and detected as described in Example 2, except that instead of using brain tissue obtained from patients with Alzheimer's disease, silk was used as a template for β-amyloid deposition. The silk specimens were wound about or placed on a glass microscope slide and treated exactly as a piece of Alzheimer's disease (AD) brain tissue was treated in Example 2, using the same solutions, incubations times, etc. Experiments involving AD brain sections and control fabrics, such as nylon and cotton, were conducted in parallel.
# Although screens of the many available silks were done at pH 8.5, later experiments were conducted at a preferably lower pH. Silk deposition experiments were done in 96-well plates. Labelled β-amyloid peptide concentration ranged from 20-100 pM, and the amount of silk used per assay ranged 0.5 to 5 mg.
# silk = experiment: deposition of radiolabelled peptide onto ceilan katia yarn with Triton X-100
# [1] = biological target: amyloid plaques in Alzheimer's disease brain tissue (homogenates and thin sections); experiment: deposition of labelled fragment
molecule,measurement,setting,value
"Radiolabelled rat β-amyloid peptide^1-40: radiolabelled rat β-amyloid peptide 1-40 (DAEFGHDSGFEVRHQKLVFFAEDVGSNKGAIIGLMVGGVV; also: radiolabelled, label site not given here; UniProt P08592 672-711, looked up)",binding to Alzheimer's disease or normal human tissue,AD plaques,failed to bind
same,binding to adult rat brain,adult rat brain,failed to bind
"βA(1-40)-NH2: derivatized 40-mer, with a carboxyamide at the C-terminus",deposition of radiolabelled peptide onto ceilan katia yarn (silk),ceilan katia yarn (silk),active
same,deposition activity of fragment (active / not active),"AD plaques; labelled fragment combined with AD amyloid plaque or silk, relative to βA(1-40)-OH",active
B1,fold activity relative to βA(1-40)-OH and βA(1-40)-NH2,silk,3 times
same,fold activity relative to β-amyloid peptide,[1],3 fold
